Measured values reported in US20080206253A1, “Method For Preventing or Treating Pain in a Mammal” (priority 2005, published 2008).
Entries after “also recorded” stand apart in the source; their conditions may differ.

Key:
[1] = system: rats, formalin-injected hind paw; experiment: Formalin-induced flinching (paw formalin test); type: in vivo, rat
Procedure: In recent work it was shown that inhibition of spinal p38 MAP kinase attenuated formalin-induced flinching. Svensson et al., J Neurochem 86: 1534-1544, 2003b. To examine the contribution of p38α and p38β in this experimental model of hyperalgesia, animals were injected with p38α, p38β AS or MS IT for five days. These animals were then examined on the formalin test. Unilateral intraplantar formalin solution (2.5%) caused a biphasic flinching pattern where the first 9 minutes are referred to as phase I and the following 50 minutes (min 10-60) as phase II. Yaksh et al., J Neurosci 21: 5847-5853, 2001a. The phase II flinching is considered to represent afferent input initiated spinal facilitation. Dickenson and Sullivan, Neurosci Lett 83: 207-211, 1987; Puig and Sorkin, Pain 64: 345-355, 1996. […] To further confirm the role of p38 to injury-induced pain behavior, a pharmacological inhibitor was also studied: SB203580, a p38α/β non-selective inhibitor.
To quantify formalin induced flinching, an automated sensing system was employed. Yaksh et al., J Appl Physiol 90: 2386-2402, 2001b. Briefly, a soft metal band was placed on the hind paw of the animal being tested. Animals were allowed to acclimate in individual Plexiglas chambers for 30 min before being moved to a test chamber. Just before the animals were placed into the test chamber, they were briefly restrained in a cloth towel, and 2.5% formalin (50 μl) was injected into the dorsal side of the banded paw. Nociceptive behavior was quantified by automatically counting the incidences of spontaneous flinching or shaking of the injected paw. The flinches were counted for 1-min periods for 60 minutes and the flinch data are expressed as number of flinches per min and total flinches observed during phase I (0-9 min) and phase II (10-60 min).

[2] = system: phosphorylated p38 (P-p38); experiment: IT substance P-evoked spinal p38 phosphorylation (Western blot); type: in vivo, rat; details: IT AS daily for five days, assessed 30 minutes after IT SP injection, compared to the MS group
Procedure: Yaksh et al., Nature 286: 155-157, 1980; Yaksh, Trends Pharmacol Sci 20: 329-337, 1999. […] Malmberg and Yaksh, Science 257: 1276-1279, 1992; Svensson et al., J Neurochem 86: 1534-1544, 2003. […] To investigate the contribution of p38α and p38β to SP-evoked hyperalgesia and p38 phosphorylation, spinal delivery of p38α and p38β AS and MS was carried out. Thermal withdrawal latencies was assessed after IT injection of SP and lumbar spinal cords collected immediately to compare the degree of spinal p38 phosphorylation at the hypothesized time of peak phosphorylation. IT injection of SP into the MS group produced an expected reduction of thermal withdrawal latency in comparison with IT saline injection into to vehicle treated animals (FIG. 7C). […] In contrast, IT SP-induced thermal hyperalgesia was attenuated in rats which had received p38β AS (FIG. 7E). […] Stripping and reprobing the western blot membranes confirmed that p38α protein expression was knocked down in p38α AS treated group (FIG. 7D) as well as p38β in the p38β AS group (FIG. 7F).
(A) Graph displaying paw withdrawal latency (PWL) plotted versus time. […] (B) Representative western blots showing levels of P-p38, total p38 and β-actin in lumbar spinal cord at different time points after IT injection of SP (30 nmol). IT-SP induced p38 phosphorylation peaks 30 minutes after SP injection. (C, E) Graph showing PWL assessed 15 and […] after bolus injection of IT saline or IT SP injection in rats treated with IT ACSF, MS (30 μg), p38α AS (30 fig) or p38β AS (20 μg) daily for five days. […] IT injection of MS or ACSF had no effect on IT SP-evoked thermal hyperalgesia. Each time point represents the mean ±SEM (n=4-5 per group). (D, F) Representative western blots showing the level of P-p38, p38α and p38β and β-actin protein expression assessed 30 minutes after IT SP injection.
Western blot. Prior to sacrifice, rats were deeply anesthetized and after decapitation the spinal cords were ejected from the vertebral column by a saline-filled syringe. The lumbar part of the spinal cord was immediately homogenized in extraction buffer (50 mM Tris buffer, pH 8.0, containing 0.5% Triton X-100, 150 mM NaCl, 1 mM EDTA, phosphatase and protease inhibitors) by sonication. […] After washing, the antibody-protein complexes were probed with appropriate secondary antibodies labeled with horseradish peroxidase for 1 hr at room temperature and detected with chemiluminescent reagents (SuperSignal, Pierce, Rockford, Ill.). […] Intensity of immunoreactive bands was quantified using ImageQuant software (Molecular Dynamics, Sunnyvale, Calif.). p38 immuno-positive bands were normalized relative to β-actin.

Substance	total number of flinches during phase I or II ([1]; IT oligonucleotide daily for 5 days, 2.5% formalin into paw, compared with IT saline or MS)	phosphorylation of spinal p38 following IT SP [2]	number of flinches during phase two ([1]; IT p38β AS (3-20 μg) daily for 5 days, compared to saline and MS treated animals, P<0.05 (10 and 20 μg))	phosphorylation of spinal p38 following IT SP ([2]; listed as p38 AS)
p38α AS: 20-nucleotide 2′-MOE phosphorothioate chimeric antisense AGGTGCTCAGGACTCCATTT, beginning at position 1081 in the rat p38α mRNA (all phosphorothioate, sugars by position and methylation of C not given here; 2'-MOE chimeric (gapmer) antisense)	did not differ; also recorded: no statistical difference	did not show a reduction; also recorded: No difference in P-p38	–	–
p38β AS: 20-nucleotide 2′-MOE phosphorothioate chimeric antisense GTATGTCCTCCTCGCGTGGA, beginning at position 439 in the rat p38β mRNA (all phosphorothioate, sugars by position and methylation of C not given here; 2'-MOE chimeric (gapmer) antisense)	–	pronounced reduction	statistical significant reduction; also recorded: statistically different	significantly lower
